We go through 16 molecules from publication PMC12138827, “Molecular Modeling and In Vitro Evaluation of Thioureas and Arylthioureas as Urease Inhibitors” (ACS Omega, 2025).

Structures are written as SMILES. Where “and” joins values, the source holds several entries; their conditions need not be identical. Identical values can stand only once. Entries after “also recorded” stand apart in the source; their conditions may differ. Like-named read-outs stand apart in the source and are kept apart here. Marks after values point to notes of the source that are not given here.

The target of series [1] is T1, C. ensiformis urease (CEU) (Canavalia ensiformis, UniProt P07374).
T1 construct: purchased Merck (Sigma-Aldrich) Jack bean type III (CAS 9002-13-5)
In words: biochemical. The following applies: triplicate; for inhibition at 2000 µM: read-out: %I ± SD (inhibitory percentage against CEU), test substance at 2.00 mM; for %I ± SD (inhibitory percentage against CEU): test substance at 2.00 mM; for IC50: 0.2-2.0 mM. The method, then: The in vitro inhibitory activity of C. ensiformis urease was conducted using the indophenol reaction, also known as the Berthlot Reaction. Commercially purchased urease from Merck (Sigma-Aldrich), Jack bean type III (CAS 9002–13–5), was utilized, and the methodology was adapted from Khan et al. (2017).
(§1) The assays were performed in triplicate on a 96-well plate, as described by our research group. , The procedure involved adding 100 μL of urea (10 mM), 55.0 μL of sodium phosphate buffer solution (100 mM, pH 7.4) supplemented with EDTA (1 mM), and 10 μL of the test substance at 2.00 mM for inhibition percentage assays, previously dissolved in methanol. Subsequently, 25.0 μL of urease enzyme solution (0.0035 mM) was added, and the reaction mixture was incubated at 45–50 °C for 30 min. After incubation, 40.0 μL of phenol reagent (1% phenol and 0.05% sodium nitroprusside) and 40.0 μL of alkaline reagent (1.0% NaOH and […]) were added. The reaction rested for 15 min, and the absorbance was read at 630 nm using a Loccus model LMR-96i UV–visible microplate reader.
Thiourea (2.00 mM) served as the standard inhibitor.
To determine half of the maximum inhibitory concentration (IC50), substances LaSMMed 42, LaSMMed 122–126, and the thiourea control were tested at different concentrations (0.2, 0.4, 0.8, 1.0, 1.4, and 2.0 mM). The IC50 values were calculated using GraphPad Prism 8.0.2, employing a dose–response curve.

Series [2] is described as follows: Solubility under the urease assay conditions. Type of series: physicochemical. The following applies: urease assay medium. The method, then:
as §1

Series [3] addresses T1, C. ensiformis urease (CEU). In words: Enzyme kinetics on C. ensiformis urease (Michaelis–Menten, Lineweaver–Burk plots). Type of series: biochemical. The following applies: for Vmax: CEU kinetic parameter with the compound; for Ki: Lineweaver–Burk, compound 0.50 and 0.25 mM; for Alfa (α): mixed inhibitors; for Inhibition type (mechanism of action): Lineweaver–Burk plots. As for the experimental part: Enzyme kinetics were studied following previous work by our research group. , The same reaction mixture was applied to determine inhibitory activity, and the IC50 was adopted to study enzyme kinetics in C. ensiformis urease. However, only two concentrations of the test substance were used (0.50 and 0.25 mM), along with five different concentrations of urea substrate (0.66, 1.00, 1.50, 2.00, and 2.50 mM) for each sample. The absorbance of the reaction mixture was recorded at 630 nm using a Loccus model LMR-96i UV–visible microplate reader. Michaelis–Menten (nonlinear regression) and Lineweaver–Burk (linear regression) plots, as well as the determination of inhibition constants (K i ), K m, α, and V max, were made using GraphPad Prism software (version 8.0.2). Enzymatic activity was calculated using an ammonium chloride calibration curve. One unit of enzymatic activity (U) is the amount of enzyme capable of releasing 1 μmol of ammonia per minute of reaction (U = 1 μmol NH4 ^+ min^–1 μmol enzyme^–1). The assays were performed in triplicate.

T1 sequence (P07374 whole entry, looked up): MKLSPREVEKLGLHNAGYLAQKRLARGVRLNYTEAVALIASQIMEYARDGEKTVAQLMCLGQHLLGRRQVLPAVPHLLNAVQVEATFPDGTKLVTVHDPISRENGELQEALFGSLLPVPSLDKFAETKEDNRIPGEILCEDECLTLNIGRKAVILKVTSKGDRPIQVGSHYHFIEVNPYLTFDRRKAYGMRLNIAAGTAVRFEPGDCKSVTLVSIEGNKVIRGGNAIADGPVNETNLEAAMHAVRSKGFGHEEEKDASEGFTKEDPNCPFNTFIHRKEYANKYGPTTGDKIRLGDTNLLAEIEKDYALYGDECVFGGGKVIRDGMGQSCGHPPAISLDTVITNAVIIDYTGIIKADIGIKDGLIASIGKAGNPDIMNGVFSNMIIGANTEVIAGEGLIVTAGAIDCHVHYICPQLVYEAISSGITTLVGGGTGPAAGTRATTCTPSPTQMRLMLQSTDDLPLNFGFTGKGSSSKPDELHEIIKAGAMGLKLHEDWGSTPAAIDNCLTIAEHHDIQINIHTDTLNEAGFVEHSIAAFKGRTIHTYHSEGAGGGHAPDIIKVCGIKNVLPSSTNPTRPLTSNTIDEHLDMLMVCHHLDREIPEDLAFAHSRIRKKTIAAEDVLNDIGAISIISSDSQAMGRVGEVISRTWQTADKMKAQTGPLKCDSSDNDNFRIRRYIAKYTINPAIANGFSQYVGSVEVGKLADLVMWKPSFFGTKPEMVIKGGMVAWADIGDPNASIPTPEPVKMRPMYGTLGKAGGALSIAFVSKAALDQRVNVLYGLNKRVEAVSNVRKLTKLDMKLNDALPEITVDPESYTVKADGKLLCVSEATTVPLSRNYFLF

Take `CNC(=S)NC(=O)/C=C/c1ccccc1` [LaSMMed 37]: in series [1], the inhibition at 2000 µM lay within 30 to 40% and the “%I ± SD (inhibitory percentage against CEU)” value is given as 33.53 ± 1.06^c %.

Regarding `CCCCCCNC(=S)NC(=O)/C=C/c1ccccc1` [LaSMMed 40], the “%I ± SD (inhibitory percentage against CEU)” value in series [1] was 39.34 ± 1.72^c %.

With `NC(=S)NC(=O)/C=C/c1ccccc1` [LaSMMed 42], in series [1], the inhibition at 2000 µM came out at 82% and the “%I ± SD (inhibitory percentage against CEU)” value is 82.37 ± 0.34^d %.

`COc1ccc(NC(=S)NC(=O)/C=C/c2ccccc2)cc1` [LaSMMed 44]: in series [2], the “Solubility under the tested conditions” value is “insoluble”.

Regarding `O=C(/C=C/c1ccccc1)NC(=S)Nc1ccc(F)cc1` [LaSMMed 45], in series [1], the inhibition at 2000 µM is 24% and the “%I ± SD (inhibitory percentage against CEU)” value is 23.98 ± 1.44^e %.

Take `Cc1ccc(NC(=S)NC(=O)/C=C/c2ccccc2)cc1` [LaSMMed 46]: the “%I ± SD (inhibitory percentage against CEU)” value in series [1] was 13.04 ± 2.46^f %.

As for `NC(=S)Nc1ccc(Cl)cc1` [LaSMMed 122], the IC50 in series [1] (IC50 ± SD) is ~575 µM and 575 µM. Moreover, in series [1], the inhibition at 2000 µM was 87.6 ± 1.72%. In series [3], the Vmax turned out to be 735.50 µmol/min; the Ki is 90 µM and 89 µM; the “Alfa (α)” value worked out at 6.00.

For `NC(=S)Nc1ccc(Br)cc1` [LaSMMed 123], the IC50 in series [1] (IC50 ± SD) turned out to be 493 ± 7 µM. Besides, the inhibition at 2000 µM in series [1] was 86.18 ± 0.75%. Also, in series [3], the Vmax was determined as 741.30 µmol/min, the Ki came to 110 µM and the “Alfa (α)” value was found to be 9.75.

In the case of `NC(=S)Nc1ccc([N+](=O)[O-])cc1` [LaSMMed 124], in series [1] (IC50 ± SD), half-maximal inhibition (IC50) was put at 464 ± 3 µM. Moreover, the inhibition at 2000 µM in series [1] turned out to be 88.3 ± 0.26%. Besides, in series [3], the Vmax is 733.50 µmol/min, the Ki amounted to 130 µM and the “Alfa (α)” value was determined as 6.13.

`COc1ccc(NC(N)=S)cc1` [LaSMMed 125] yielded an IC50 in series [1] (IC50 ± SD) of 510 ± 19 µM. In addition, in series [1], the inhibition at 2000 µM amounted to 84% and the “%I ± SD (inhibitory percentage against CEU)” value is given as 84.56 ± 1.23^b %. Moreover, in series [3], the Vmax is 737.50 µmol/min, the Ki turned out to be 80 µM and the “Inhibition type (mechanism of action)” value is “competitive inhibition; also recorded: competitive inhibitor”.

In series [1] (IC50 ± SD), `Cc1ccc(NC(N)=S)cc1` [LaSMMed 126] came in with an IC50 of 568 ± 22 µM. The inhibition at 2000 µM in series [1] amounted to 87.86 ± 0.48%. In series [3], the Vmax was found to be 732.30 µmol/min, the Ki was 100 µM, the “Inhibition type (mechanism of action)” value is on record as “mixed-type inhibition” and the “Alfa (α)” value is 4.88.

`NC(N)=S` [Thiourea]: the IC50 in series [1] (read-out: IC50 ± SD) came out at 504 ± 25 µM. The “%I ± SD (inhibitory percentage against CEU)” value in series [1] is 84.12 ± 0.84^d %; in series [1] (listed as thiourea), 84%.

Consider `CCCCCCNC(=S)NC(=O)/C=C/c1ccccc1` [compound 40], for which the inhibition at 2000 µM in series [1] fell in the range of 30 to 40%.

`Cc1ccc(NC(=S)NC(=O)/C=C/c2ccccc2)cc1` [compound 46]: in series [1], the inhibition at 2000 µM is 13%.

On to `NC(=S)Nc1ccc([N+](=O)[O-])cc1` [compound 124], for which the Ki in series [3] was roughly 100 µM.

In series [1] (IC50 ± SD), `Cc1ccc(NC(N)=S)cc1` [compound 126] gave an IC50 of roughly 575 µM. Moreover, the Ki in series [3] is roughly 100 µM.
